# Values quoted from earlier work as cited in patent US20260158011A1 (Achieve Life Sciences, Inc., priority 2023, published 2026).
# Where two headings read alike, the source gives them in different places.
# Columns and labels:
# smokers [1] = details: cited from earlier work
# smokers [2] = details: Cochrane, Chantix (n > 7000); cited from earlier work
# [3] = molecular target: neuronal alpha4, beta2 (α4β2) receptors (Homo sapiens, UniProt P17787+P43681); details: background studies; cited from earlier work
# Chain of neuronal alpha4, beta2 (α4β2) receptors (P43681 29-627 limits assumed): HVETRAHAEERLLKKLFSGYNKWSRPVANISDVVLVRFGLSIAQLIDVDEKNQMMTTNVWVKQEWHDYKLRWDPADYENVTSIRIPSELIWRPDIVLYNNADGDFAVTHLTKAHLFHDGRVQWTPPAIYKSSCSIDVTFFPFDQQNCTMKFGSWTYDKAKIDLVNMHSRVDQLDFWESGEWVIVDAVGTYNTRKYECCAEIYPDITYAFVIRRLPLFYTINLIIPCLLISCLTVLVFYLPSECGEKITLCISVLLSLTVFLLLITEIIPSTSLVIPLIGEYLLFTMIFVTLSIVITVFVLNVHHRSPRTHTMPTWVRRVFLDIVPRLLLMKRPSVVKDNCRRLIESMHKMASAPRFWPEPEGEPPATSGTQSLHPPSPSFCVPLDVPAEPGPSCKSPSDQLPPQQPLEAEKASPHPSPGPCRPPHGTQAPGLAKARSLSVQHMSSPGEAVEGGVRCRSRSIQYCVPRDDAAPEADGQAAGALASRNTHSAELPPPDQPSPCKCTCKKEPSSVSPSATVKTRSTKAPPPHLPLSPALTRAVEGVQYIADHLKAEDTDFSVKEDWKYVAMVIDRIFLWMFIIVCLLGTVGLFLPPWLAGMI
# Chain of neuronal alpha4, beta2 (α4β2) receptors (P17787 26-502): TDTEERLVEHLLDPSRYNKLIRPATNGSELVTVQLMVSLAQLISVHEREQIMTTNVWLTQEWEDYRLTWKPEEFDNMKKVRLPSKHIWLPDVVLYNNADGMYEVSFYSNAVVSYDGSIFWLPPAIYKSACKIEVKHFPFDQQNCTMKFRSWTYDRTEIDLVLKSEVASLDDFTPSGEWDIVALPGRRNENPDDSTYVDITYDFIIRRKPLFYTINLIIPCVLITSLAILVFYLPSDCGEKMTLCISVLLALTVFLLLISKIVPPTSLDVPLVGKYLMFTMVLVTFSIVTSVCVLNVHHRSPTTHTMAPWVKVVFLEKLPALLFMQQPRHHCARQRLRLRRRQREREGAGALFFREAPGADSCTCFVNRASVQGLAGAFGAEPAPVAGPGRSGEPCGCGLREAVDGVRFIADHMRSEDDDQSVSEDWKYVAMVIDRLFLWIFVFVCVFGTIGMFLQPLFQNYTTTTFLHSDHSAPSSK
compound,measurement,setting,value
"c1cnc2cc3c(cc2n1)[C@@H]1CNC[C@H]3C1 [Chantix ®, varenicline]",OR at End of Treatment,"smokers [1]; Chantix 12 weeks (EAGLES), versus placebo",4.0
same,Drug-placebo difference in quit rate at End of Treatment,smokers [1]; Chantix 12 weeks (EAGLES),24.3%
same,Quit Rate at End of Treatment,smokers [1]; Chantix 12 weeks (EAGLES),38.0%
same,OR at 4 Weeks Off Treatment,"smokers [1]; Chantix (EAGLES), versus placebo",3.5
same,Drug-placebo difference in quit rate at 4 Weeks Off Treatment,smokers [1]; Chantix (EAGLES),20.7%
same,Quit Rate at 4 Weeks Off Treatment,smokers [1]; Chantix (EAGLES),33.2%
same,OR at 4 Weeks Treatment,"smokers [1]; Chantix (ONCKEN), versus placebo",3.1
same,Drug-placebo difference in quit rate at 4 Weeks Treatment,smokers [1]; Chantix (ONCKEN),21.4%
same,Quit Rate at 4 Weeks Treatment,smokers [1]; Chantix (ONCKEN),37.7%
same,Quit rate at 24 weeks,"smokers [1]; EAGLES, U.S. patients (N=1065)",16%
same,Overall quit rate at 24 weeks,"smokers [1]; EAGLES, all regions",22%
same,CAR weeks 9-24 % (95% CI),"smokers [1]; EAGLES, region Non-U.S.",27.9 (25.2-30.8) % (95% CI)
same,"Versus placebo OR (95% CI), CAR weeks 9-24","smokers [1]; EAGLES, region Non-U.S.",2.80 (2.20-3.55)
same,CAR weeks 9-24 % (95% CI),"smokers [1]; EAGLES, region U.S.",16.1 (14.0-18.4) % (95% CI)
same,"Versus placebo OR (95% CI), CAR weeks 9-24","smokers [1]; EAGLES, region U.S.",2.66 (1.99-3.55)
same,Serious AEs,smokers [2],3.3%
same,TEAE: Abnormal dreams,smokers [2],12.5%
same,TEAE: Headache,smokers [2],12.7%
same,TEAE: Insomnia,smokers [2],14.2%
same,TEAE: Nausea,smokers [2],27.8%
"CN1CCCC1c1cccnc1 (stereo not drawn) [nicotine, reference compound]",Binding to α4β2 receptors,[3],bind strongly and preferentially
